Experiment [1] deals with ischémie focale permanente par occlusion intraluminale de l'artère cérébrale moyenne chez le rat. As to the kind of experiment: permanent focal ischemia model by intraluminal occlusion of the middle cerebral artery in the rat (infarct volume). The class given is in vivo. Particulars: 1 mg/kg intraperitoneal, given 10 minutes, 2 h 30 and 5 h after occlusion; infarct volume evaluated 24 h after occlusion. The source says: L'activité neuroprotectrice des composés de formule (I) a été également démontrée dans un modèle d'ischémie focale permanente par occlusion intraluminale de l'artère cérébrale moyenne chez le rat, selon une méthode analogue à celle décrite dans Stroke, 20, 84-91 (1989). Sous anesthésie au méthohexital sodique, on ligature l'artère ptérygopalatine, l'artère carotidienne commune et l'artère carotidienne externe gauche; on introduit un fil de nylon dans l'artère carotidienne interne sur une longueur d'environ 18 mm correspondant à la distance qui sépare la naissance de l'artère carotidienne interne de celle de l'artère cérébrale moyenne. Les composés sont administrés 10 minutes, 2 heures 30 et 5 heures après l'occlusion, aux doses de 0,3; 1; 3 et 10 mg/kg par voie intrapéritonéale. 24 heures après l'occlusion de l'artère cérébrale moyenne, on sacrifie les animaux et on prélève le cerveau. On évalue le volume de l'infarctus cérébral à partir de la mesure de la surface de la nécrose sur 6 coupes coronales colorées par le chlorure de 2,3,5-triphényltétrazolium. A titre d'exemple le trans-N-[3-[5-(6-méthoxynaphtalén-1-yl)-1,3-dioxan-2-yl]propyl]acétamide réduit le volume de l'infarctus cérébral d'environ 30% à la dose de 1 mg/kg.

The subject of experiment [2] is ischémie cérébrale globale chez la souris. Kind of experiment: global cerebral ischemia test in mice (cardiac arrest induced by intravenous magnesium chloride; survival time). It counts as in vivo. Particulars: Mus musculus, read-out: dose efficace 3 secondes (DE3sec). The source says:
Ainsi les composés utilisables selon l'invention ont été soumis au test de l'ischémie cérébrale globale chez la souris. L'ischémie est due à un arrêt cardiaque induit par une injection intraveineuse rapide de chlorure de magnésium. Dans ce test on mesure le "temps de survie", c'est-à-dire l'intervalle entre le moment de l'injection de chlorure de magnésium et le dernier mouvement respiratoire observable de chaque souris. Ce dernier mouvement est considéré comme l'indice ultime d'une fonction du système nerveux central. L'arrêt respiratoire apparaît approximativement 21 secondes après l'injection de chlorure de magnésium. Des souris mâles (SWISS OF₁ IFFA CREDO) sont étudiées par groupes de 10. Elles sont nourries et abreuvées ad libitum avant les essais. Le temps de survie est mesuré 10 minutes après l'administration intrapéritonéale ou 5 minutes après l'administration intraveineuse dans la veine caudale, des composés de formule (I). Les résultats sont donnés sous la forme de la différence entre le temps de survie mesuré dans un groupe de 10 souris ayant reçu le composé et le temps de survie mesuré dans un groupe de 10 souris ayant reçu le liquide véhicule. Les rapports entre le temps de survie et la dose du composé sont enregistrés graphiquement selon une courbe semilogarithmique. Cette courbe permet le calcul de la "dose efficace 3 secondes" (DE3sec), c'est-à-dire la dose (en mg/kg) qui produit une augmentation de 3 secondes du temps de survie par rapport au groupe témoin de 10 souris traitées par le véhicule. Une augmentation de 3 secondes du temps de survie est à la fois significative statistiquement et reproductible. A titre d'exemple, après injection par voie intrapéritonéale, la DE3sec du trans-N-[3-[5-(6-méthoxynaphtalén-1-yl)-1,3-dioxan-2-yl]propyl]acétamide dans ce test est de 11,4 mg/kg, la DE3sec du cis-N-[3-[5-(6-méthoxynaphtalén-1-yl)-1,3-dioxan-2-yl]propyl]acétamide dans ce test est de 6,1 mg/kg et la DE3sec du trans-N-[3-[5-[6-(cyclopropylméthoxy)naphtalén-1-yl]-1,3-dioxan-2-yl]propyl]acétamide dans ce test est de 6,1 mg/kg. Par voie intraveineuse, après solubilisation dans une solution de 2-hydroxypropyl-β-cyclodextrine, la DE3sec du trans-N-[3-[5-(6-méthoxynaphtalén-1-yl)-1,3-dioxan-2-yl]propyl]acétamide dans ce test est de 2,25 mg/kg.

[3] abbreviates: ip, 10 min, intraperitoneal injection, survival time measured 10 minutes after administration, dose giving a 3 second increase of survival time vs vehicle group.

Where two headings read alike, the source gives them in different places.

Regarding `COc1ccc2c(cccc2[C@H]2CO[C@H](CCCNC(C)=O)OC2)c1` [trans-N-[3-[5-(6-méthoxynaphtalén-1-yl)-1,3-dioxan-2-yl]propyl]acétamide], in experiment [1], the “réduit le volume de l'infarctus cérébral” value is on record as roughly 30%. Also, the ED (3 s increase of survival time) came to 2.25 mg/kg in experiment [2] (5 min, intravenous route, solubilised in 2-hydroxypropyl-β-cyclodextrine solution, survival time measured 5 minutes after administration) and 11.4 mg/kg in experiment [2] (setting [3]).
For `CC(=O)NCCC[C@H]1OC[C@H](c2cccc3cc(OCC4CC4)ccc32)CO1` [trans-N-[3-[5-[6-(cyclopropylméthoxy)naphtalén-1-yl]-1,3-dioxan-2-yl]propyl]acétamide], in experiment [2] (setting [3]), the ED (3 s increase of survival time) worked out at 6.1 mg/kg.
Turning to `COc1ccc2c(cccc2[C@H]2CO[C@@H](CCCNC(C)=O)OC2)c1` [cis-N-[3-[5-(6-méthoxynaphtalén-1-yl)-1,3-dioxan-2-yl]propyl]acétamide], in experiment [2] (setting [3]), the ED (3 s increase of survival time) came out at 6.1 mg/kg.

(Values after patent EP0686394A1, “Use of N-[[5-(naphthales-1-yl)-1,3-dioxan-2-yl]alkyl]acetamide derivatives for the preparation of medicaments for use in the treatment of neurodegenerative disorders” (SYNTHELABO, priority 1994, dated 1995).)
